From US20180296530A1, “METHOD FOR TREATING ATOPIC DERMATITIS” (priority 2015, published 2018)

Assays:
[1] = test system: Patients aged 1 to 18 years with physician-diagnosed AD; assay: Randomized double-blind placebo-controlled crossover clinical trial: AD severity by SCORAD index; assay type: in vivo, human; set-up: key to mean SCORAD index, first treatment period, before / mean SCORAD index, first treatment period, after: SCORAD index, range 1-103, higher = worse symptoms; key to Objective SCORAD index, Difference: objective SCORAD, range 0-83, higher = worse symptoms
Protocol: A randomized clinical study with a double-blind, placebo-controlled crossover design was performed. The institutional review committee of National Taiwan University Hospital approved the study protocol. This study conformed to the principles of the Declaration of Helsinki. Patients or their guardians provided written informed consent. Patients aged 1 to 18 years with physician-diagnosed AD involving at least 5% of the total body surface area were recruited from the pediatric and dermatology outpatient departments of the National Taiwan University Hospital from Aug. 1, 2012, through Jan. 31, 2013. Follow-up was completed on Apr. 13, 2013. Those patients with sleep problems occurring more than 3 days per week during the previous 3 months were eligible. The study participants were randomly assigned to 2 groups in a 1:1 ratio, with a block size of 4. One group received melatonin first and then placebo, and the other group received placebo first and then melatonin. The melatonin and placebo tablets were identical in appearance. The participants and their caregivers, treating physicians, those assessing outcomes, and those analyzing the data were all masked to group assignment. […] They were then randomized to receive oral melatonin, 3 mg/d (General Nutrition Corporation), or placebo (Standard Chem & Pharm Co, Ltd) at bedtime for 4 weeks. After a 2-week washout period, participants crossed to the alternate treatment. In this clinical trial, the primary study outcome was the Scoring Atopic Dermatitis (SCORAD) index for the evaluation of AD severity. Secondary outcomes included the objective sleep variables measured by actigraphy, the patient's subjective description of the change in sleep and dermatitis severity, the sleep variables measured by polysomnography, nocturnal urinary levels of 6-sulfatoxymelatonin, and serumtotal and allergen-specific IgE levels. Severity of AD was assessed using the SCORAD index (range, 1-103, with greater scores indicating worse symptoms) by the same physician (Y.-S.C.) blinded to the treatment randomization. The SCORAD index includes subjective visual analog scale scores from 0 to 10 (with greater numbers indicating worse symptoms) for degree of pruritus and sleep loss, which are referred to as the pruritus score and the subjective sleep score, respectively, in this study. The objective SCORAD index, which excludes the SCORAD score for subjective symptoms (range, 0-83, with greater scores indicating worse symptoms), was also used for analysis.

[2] = test system: DNCB-induced AD mouse model; assay: Example 6: dermatitis severity, topical melatonin cream in DNCB-induced AD mouse model; assay type: in vivo, Balb/c mice; conditions: for clinical score (dermatitis): day 1 to day 14, Day 15, DNCB group 10, Control 0
Protocol: Macroscopic assessment of the severity of dermatitis was determined by a scoring method as described previously. Briefly, the degree of each sign were scored as 0 (none), 1 (mild), 2 (moderate), and 3 (severe). This scoring was based on the severity of erythema (hemorrhage), edema, excoriation (erosion), and dryness (scaling). The total score (minimum 0 and maximum 12) from the four symptoms of each mouse were taken as the score for that mouse. Ear thickness was measured with a thickness gauge (Digimatic Indicator, Mitsutoyo, Tokyo). This assessment was performed on the last day of the experiment (Day 20) by an investigator who was blind to the grouping of the animals.
Four- to six-week-old Balb/c mice were maintained under specific pathogen-free conditions. Animals were housed in an air-conditioned animal room (25±1° C.; relative humidity 40±5%) and were fed a laboratory diet and distilled water. Animal care and handling protocols were approved by the Animal Committee of the College of Medicine, Taiwan University, and all procedures were conducted in accordance with the U.S. National Institute of Health guidelines.
(§1) The protocol for establishing an AD mouse model in this Example was modified from those described previously. Briefly, referring to FIG. 12, DNCB-induced AD mouse model was prepared by the repeated applications of 20 μL of 1% DNCB in acetone/olive oil (4:1) to the outer and inner surfaces of mouse ears and 100 μL of the same solution to the shaved back skin once on days 1 and 4. Mice of Control group were treated with the identical volumes of vehicle.
The DNCB-sensitized mice were randomly assigned to one of four groups: DNCB, DNCB+0.1% topical melatonin, DNCB+1% topical melatonin, DNCB+8% topical melatonin. Each group (including Control group) consisted of 3 mice. On days 8 and 11, sensitized mice was challenged by applying 0.2% DNCB to the skin surfaces. For the three groups treated with topical melatonin groups, 0.1 mg of topical melatonin cream was given twice a day from day 1 to day 14. The cream base consisted of a mixture of tefose 63, octyldodecyl myristate, sorbic acid, methyl paraben sodium, ddH2O, and apricot kernel oil. For Control and DNCB groups, 0.1 mg of cream base was given twice a day from day 1 to day 14. This experiment was ended at Day 15.
The dermatitis severity of each mouse treated with or without melatonin was evaluated in the same manner as those described in Example 5. This evaluation was performed on the last day of the experiment (Day 15) by an investigator who was blind to the grouping of the animals.

serum total IgE = assay: Example 6: serum IgE in DNCB-induced AD mouse model; assay type: in vivo, Balb/c mice
Protocol: Blood and dorsal skin of each mouse were collected on the last day of the experiment (Day 20) and stored at −80° C. until use. Serum IgE levels were measured using the ImmunoCAP fluorescence enzyme immunoassay (Phadia AB, Sweden) according to the manufacturer's instructions. The dorsal skin mRNA expression of the cytokines IL-4, IL-13, and IL-17 were measured by RT-PCR.
as §1
The DNCB-sensitized mice were randomly assigned to one of four groups: DNCB, DNCB+0.1% topical melatonin, DNCB+1% topical melatonin, DNCB+8% topical melatonin. Each group (including Control group) consisted of 3 mice. On days 8 and 11, sensitized mice was challenged by applying 0.2% DNCB to the skin surfaces. For the three groups treated with topical melatonin groups, 0.1 mg of topical melatonin cream was given twice a day from day 1 to day 14. […]
The serum IgE levels were measured on the last day of the experiment (Day 15) in the same manner as those described in Example 5.

[3] = after vs before oral melatonin 3 mg/d, 4 weeks, mean
[4] = melatonin vs placebo, adjusted for age and sex

## COc1ccc2[nH]cc(CCNC(C)=O)c2c1 [Melatonin, melatonin]
[1]; FIGS. 2A and 2C, sensitivity analysis
  SCORAD index vs placebo, Wilcoxon signed rank test: apparently decreased the SCORAD index
[1]; after melatonin treatment, 17 of 36 (placebo 12 of 38 [32%])
  patients who subjectively believed that their dermatitis had improved: 47%
[1]; after oral melatonin 3 mg/d at bedtime for 4 weeks, mean
  Subjective sleep score, After: 3.8
[1]; after oral melatonin 3 mg/d at bedtime for 4 weeks, mean, score 0 to 10
  Pruritus score, After: 5.1
[1]; after oral melatonin 3 mg/d at bedtime for 4 weeks, mean, score 0 to 83
  Objective SCORAD index, After: 31.3
[1]; after oral melatonin 3 mg/d at bedtime for 4 weeks, mean, score 0 to 103
  SCORAD index, After: 40.2
[1]; [3]
  Objective SCORAD index, Difference: −8.2
  Pruritus score, Difference: −0.6
  SCORAD index, Difference: −9.9
  Subjective sleep score, Difference: −1.1
[1]; in 4 weeks, oral melatonin 3 mg/d
  mean reduction of the SCORAD index: 9.9
[1]; linear mixed-effects model, adjusted for age and sex
  decrease of the SCORAD index compared with placebo: 9.1
[1]; linear mixed-effects model, no significant carryover effect (P=0.81), significant period effect (P=0.02)
  decrease of the objective SCORAD index compared with placebo: 8.7
[1]; melatonin group, first treatment period, after oral 3 mg/d for 4 weeks
  mean SCORAD index, first treatment period, after: 42.3
[1]; melatonin group, first treatment period, before treatment
  mean SCORAD index, first treatment period, before: 49.5
[1]; melatonin group, second treatment period, after oral 3 mg/d for 4 weeks
  mean SCORAD index, second treatment period, after: 38.3
[1]; melatonin group, second treatment period, before treatment
  mean SCORAD index, second treatment period, before: 48.7
[1]; melatonin phase, before treatment, mean
  Subjective sleep score, Before: 4.8
[1]; melatonin phase, before treatment, mean, score 0 to 10
  Pruritus score, Before: 5.6
[1]; melatonin phase, before treatment, mean, score 0 to 83
  Objective SCORAD index, Before: 38.6
[1]; melatonin phase, before treatment, mean, score 0 to 103
  SCORAD index, Before: 49.1
[1]; [4]
  Objective SCORAD index, Difference of Treatment Effect From the Linear Mixed-Effects Model, Mean: −8.7
  Pruritus score, Difference of Treatment Effect From the Linear Mixed-Effects Model, Mean: 0.0
  SCORAD index, Difference of Treatment Effect From the Linear Mixed-Effects Model, Mean: −9.1
  Subjective sleep score, Difference of Treatment Effect From the Linear Mixed-Effects Model, Mean: −0.4
[2]; 0.1% melatonin cream twice a day
  clinical score (dermatitis): 7
[2]; 0.1%, 1%, and 8% topical melatonin, 8% improved the skin severity most
  gross skin findings: improved the gross skin findings in a dose-dependent manner
[2]; 8% melatonin cream twice a day
  clinical score (dermatitis): 2
[2]; after 8% melatonin treatment, FIG. 14
  Ear thickness: significantly improved
Serum total IgE; 8% topical melatonin treatment, FIG. 15
  serum total IgE levels: lowered the total serum IgE most
Serum total IgE; after topical melatonin treatment (0.1%, 1%, 8%), dose-response relationship, FIG. 15, Day 15
  serum total IgE levels: reduced
